Laboratory results: US20240139104A1, “MICELLE RELEASING THERMOSENSITIVE HYDROGELS AS A THERAPEUTIC DELIVERY SYSTEM” (GEORGIA TECH RESEARCH CORPORATION, priority 2021, published 2024)

Experiments:
[1] = test system: B16F10-OVA tumor; assay: GSNO (i.t.) and aCTLA-4 (i.p.) therapy without hydrogel, dual tumor model; type: in vivo, mice; details: GSNO 480 μg kg^−1 i.t. day 7; aCTLA-4 100 μg mouse^−1 i.p. day 8, 11, 14; compared to saline
Procedure: In brief, 10^5 B16F10-OVA (30 μL) was inoculated in left dorsal skin on day 0 and in right dorsal skin on day 4 to establish dual tumor model. 30 μL of saline or GSNO (480 μg kg ^−1) was administered to the left tumor on day 7 and 30 μL of aCTLA-4 (100 μg mouse^−1) was administered intraperitoneally on day 8, 11, 14.

[2] = test system: immune cells in blood; assay: Immune cell profiles in blood (flow cytometry) after GSNO and aCTLA-4; type: in vivo, mice; details: CD4+T, CD8+T, NKT populations
Procedure: Immune cells in blood were collected and profiled to delineate the systemic immunity in the combinational use of GSNO and aCTLA-4 (FIG. 29). In brief, ACK lysis buffer was treated to the blood taken on day 9 to harvest immune cells in blood by removing red blood cells. All cells were stored on ice<2 h prior to use. Cells for flow cytometry were prepared by six steps with PBS, FACS buffer, or permeabilization buffer (eBioscience™ Foxp3/Transcription Factor Staining Buffer Set, Invitrogen™) wash; 2.4G2 staining on ice for 5 min, Zombie Aqua fixable viability dye staining at room temperature for 30 min, […]-MHCI-PE tetramer (NIH Tetramer Core Facility, Atlanta, Georgia) staining on ice for 15 min, antibody mixtures staining on ice for 30 min, fixing and permeabilizing with Foxp3 Fixation/Permeabilization working solution (eBioscience™ Foxp3/Transcription Factor Staining Buffer Set, Invitrogen™) on ice for 60 min, and FoxP3 staining on ice for 75 min. LSR Fortessa flow cytometry and flowJo were employed to analyze and profiles the stained cells.

[3] = Absorption/fluorescence and photostability of IR780 exposed to daylight; type: physicochemical; details: 10% ethanol
[4] = test system: B16F10-OVA tumor and TdLNs; details: 15 μL of 0.016 mg mL^−1 IR780 intratumoral, IVIS 24 h after injection

| SMILES | therapeutic effects (1º and 2º tumor growth) [1] | systemic activation and expansion of T cell, NK and NKT in blood [2] | time to complete photobleaching [3] [h] | IR780 signal in injected tumor tissues and TdLNs [4] |
| --- | --- | --- | --- | --- |
| N[C@@H](CCC(=O)N[C@@H](CSN=O)C(=O)NCC(=O)O)C(=O)O [GSNO, S-nitrosoglutathione] | did not lead to any therapeutic effects | failed to induce systemic activation and expansion of T cell, NK and NKT response |  |  |
| CCCN1C(=CC=C2CCCC(C=CC3=[N+](CCC)c4ccccc4C3(C)C)=C2Cl)C(C)(C)c2ccccc21.[I-] [IR780, IR780 iodide] |  |  | ≤ 24 | cleared quickly from the injected tumor tissues and exhibited negligible signals in the TdLNs |
